Here are results for 27 compounds from US8895745B2, “Bicyclic heterocyclic compounds as FGFR inhibitors” (Astex Therapeutics Limited, priority 2006, dated 2014).

Where a name gives a salt, the structure may show the parent alone. Some results are limits rather than exact numbers.

The test system of the first assay is LP-1 cell line. The assay can be described thus: Cell-based pERK ELISA method, LP-1 cells. To be noted: Homo sapiens, LP-1, read-out: IC50 less than 1 μM or at least 50% inhibition at a concentration of 1 μM, LP-1 pERK ELISA.
Method: LP-1 or JIM-1 multiple myeloma cells were seeded in 96 well plates at 1×10^6 cells/ml in 200 ul per well in serum free media. […] Cells were incubated for 16 h at 37° C. prior to the addition of a test compound for 30 minutes. Test compounds were administered at a 0.1% final DMSO concentration. […] ELISA plates and standards were prepared according o the standard DuoSet protocols and the relative amounts of pERK to total ERK in each sample calculated according to the standard curve.
In particular, compounds of the invention were tested against the LP-1 cell line (DSMZ no.: ACC 41) derived from human multiple myeloma.
As to `Cc1nc(C)n(-c2ccn3c(-c4cccc(NC(=O)NCC(F)(F)F)c4)cnc3c2)n1` [Example 414, 1-{3-[7-(3,5-Dimethyl-[1,2,4]triazol-1-yl)-imidazo[1,2-a]pyridin-3-yl]-phenyl}-3-(2,2,2-trifluoro-ethyl)-urea], the IC50 is under 1 µM.

Take `O=C(NCC(F)(F)F)Nc1cccc(-c2cnc3cc(-c4ccnc(OC5CCOCC5)c4)ccn23)c1` [Example 212, 1-(3-{7-[2-(Tetrahydro-pyran-4-yloxy)-pyridin-4-yl]-imidazo[1,2-a]pyridin-3-yl}-phenyl)-3-(2,2,2-trifluoro-ethyl)-urea]: the IC50 is under 1 µM. As for `CCNC(=O)Nc1cccc(-c2cnc3cc(-c4cccc(C(=O)N5CCOCC5)c4)ccn23)c1` [Example 36, 1-Ethyl-3-(3-{7-[3-(morpholine-4-carbonyl)-phenyl]-imidazo[1,2-a]pyridin-3-yl}-phenyl)-urea], the IC50 was under 1 µM. On the same count and under the same terms, under `CCc1nnc(-c2ccn3c(-c4cccc(NC(=O)NCC(F)(F)F)c4)cnc3c2)s1` [Example 260, 1-{3-[7-(5-Ethyl-[1,3,4]thiadiazol-2-yl)-imidazo[1,2-a]pyridin-3-yl]-phenyl}-3-(2,2,2-trifluoro-ethyl)-urea] stands under 1 µM. On to `O=C(NCC(F)(F)F)Nc1cccc(-c2cnc3cc(-c4cccc(Cl)c4)ccn23)c1` [Example 278], for which the IC50 was under 1 µM. Regarding `O=C(NCC(F)(F)F)Nc1cncc(-c2cnc3cc(-c4ccc(F)cc4)ccn23)c1` [Example 218, 1-{5-[7-(4-Fluoro-phenyl)-imidazo[1,2-a]pyridin-3-yl]-pyridin-3-yl}-3-(2,2,2-trifluoro-ethyl)-urea], the IC50 is under 1 µM. Same read-out and setting: under `CC(C)(O)c1ccc(-c2ccn3c(-c4cccc(NC(=O)NCC(F)(F)F)c4)cnc3c2)cn1` [Example 351, 1-(3-{7-[6-(1-Hydroxy-1-methyl-ethyl)-pyridin-3-yl]-imidazo[1,2-a]pyridin-3-yl}-phenyl)-3-(2,2,2-trifluoro-ethyl)-urea] stands under 1 µM.

Consider `CCC(=O)Nc1cccc(-c2cnc3cc(-c4ccc(F)cc4)ccn23)c1` [Example 64, N-{3-[7-(4-Fluoro-phenyl)-imidazo[1,2-a]pyridin-3-yl]-phenyl}-propionamide], for which the IC50 was under 1 µM. The same measure, in the same setting: under `O=C(NCC(F)(F)F)Nc1cccc(-c2cnc3cc(-c4ccc(C5CNCCN5)cc4)ccn23)c1` (stereo not drawn) [Example 296, 1-{3-[7-(4-Piperazin-2-yl-phenyl)-imidazo[1,2-a]pyridin-3-yl]-phenyl}-3-(2,2,2-trifluoro-ethyl)-urea hydrochloride] stands under 1 µM. In the case of `N#Cc1ccn2c(-c3cccc(NC(=O)NCC(F)(F)F)c3)cnc2c1` [Example 341, 1-[3-(7-Cyano-imidazo[1,2-a]pyridin-3-yl)-phenyl]-3-(2,2,2-trifluoro-ethyl)-urea], the IC50 was under 1 µM. Consider `O=C(NCC(F)(F)F)Nc1cccc(-c2cnc3cc(-c4cccc(C(=O)N5CCNCC5)c4)ccn23)c1` [Example 250, 1-(3-{7-[3-(Piperazine-1-carbonyl)-phenyl]-imidazo[1,2-a]pyridin-3-yl}-phenyl)-3-(2,2,2-trifluoro-ethyl)-urea hydrochloride], for which the IC50 is under 1 µM. With `O=C(NCC(F)(F)F)Nc1cccc(-c2cnc3cc(-c4cccc(F)c4)ccn23)c1` [Example 143, 1-{3-[7-(3-Fluoro-phenyl)-imidazo[1,2-a]pyridin-3-yl]-phenyl}-3-(2,2,2-trifluoro-ethyl)-urea Hydrochloride], the IC50 is under 1 µM.

Consider `CC(=O)Nc1cccc(-c2cnc3cc(-c4cccc(CN5CCOCC5)c4)ccn23)c1` [Example 9, N-{3-[7-(3-Morpholin-4-ylmethyl-phenyl)-imidazo[1,2-a]pyridin-3-yl]-phenyl}-acetamide], for which the IC50 was under 1 µM. As for `CCNC(=O)Nc1cccc(-c2cnc3cc(-c4ccc(OC)nc4)ccn23)c1` [Example 43, 1-Ethyl-3-{3-[7-(6-methoxy-pyridin-3-yl)-imidazo[1,2-a]pyridin-3-yl]-phenyl}-urea], the IC50 was under 1 µM. On to `COc1cc(NC(=O)NCC(F)(F)F)cc(-c2cnc3cc(-c4ccc(F)cc4)ccn23)c1` [Example 217, 1-{3-[7-(4-Fluoro-phenyl)-imidazo[1,2-a]pyridin-3-yl]-5-methoxy-phenyl}-3-(2,2,2-trifluoro-ethyl)-urea], for which the IC50 was under 1 µM. `O=C(NCC(F)(F)F)Nc1cccc(-c2cnc3cc(-c4cccc(CN5CCOCC5)c4)ccn23)c1` [Example 184, 1-{3-[7-(3-Morpholin-4-ylmethyl-phenyl)-imidazo[1,2-a]pyridin-3-yl]-phenyl}-3-(2,2,2-trifluoro-ethyl)-urea Hydrochloride]: the IC50 is under 1 µM. As for `CCNC(=O)Nc1cncc(-c2cnn3cc(-c4ccc(F)cc4)cnc23)c1` [Example 197, 1-Ethyl-3-{5-[6-(4-fluoro-phenyl)-pyrazolo[1,5-a]pyrimidin-3-yl]-pyridin-3-yl}-urea], the IC50 is under 1 µM. Regarding `CC(C)Oc1cc(NC(=O)NCC(F)(F)F)cc(-c2cnc3cc(-c4ccc(F)cc4)ccn23)c1` [Example 238, 1-{3-[7-(4-Fluoro-phenyl)-imidazo[1,2-a]pyridin-3-yl]-5-isopropoxy-phenyl}-3-(2,2,2-trifluoro-ethyl)-urea], the IC50 was under 1 µM.

Take `CC(=O)Nc1cccc(-c2cnc3ccc(-c4ccoc4)cn23)c1` [Example 104, N-[3-(6-Furan-3-yl-imidazo[1,2-a]pyridin-3-yl)-phenyl]-acetamide]: the IC50 was under 1 µM. Same read-out and setting: under `Cn1cc(-c2ccn3c(-c4cccc(NC(=O)NCC(F)(F)F)c4)cnc3c2)cn1` [Example 128, 1-{3-[7-(1-Methyl-1H-pyrazol-4-yl)-imidazo[1,2-a]pyridin-3-yl]-phenyl}-3-(2,2,2-trifluoro-ethyl)-urea formate] stands under 1 µM; under `O=C(NCC(F)(F)F)Nc1cccc(-n2cnc3cc(-c4ccc(F)cc4)cnc32)c1` [Example 179], under 1 µM; under `CCNC(=O)Nc1cccc(-c2cnc3cc(-c4ccc(C(C)(C)C(=O)OC)cc4)ccn23)c1` [Example 39, 2-(4-{3-[3-(3-Ethyl-ureido)-phenyl]-imidazo[1,2-a]pyridin-7-yl}-phenyl)-2-methyl-propionic acid methyl ester], under 1 µM.

Still in this assay, the particulars now being: Homo sapiens, LP-1, read-out: LP-1 pERK ELISA (μM).
As to `Cc1c(-c2ccn3c(-c4cccc(NC(=O)NCC(F)(F)F)c4)cnc3c2)ncn1C` [Example 374, 1-{3-[7-(1,5-Dimethyl-1H-imidazol-4-yl)-imidazo[1,2-a]pyridin-3-yl]-phenyl}-3-(2,2,2-trifluoro-ethyl)-urea], the IC50 is 0.0084 µM. With `Cn1cnc(-c2ccn3c(-c4cccc(NC(=O)NCC(F)(F)F)c4)cnc3c2)c1` [Example 375, 1-{3-[7-(1-Methyl-1H-imidazol-4-yl)-imidazo[1,2-a]pyridin-3-yl]-phenyl}-3-(2,2,2-trifluoro-ethyl)-urea], the IC50 was 0.022 µM.

The target of a further assay is FGFR3 (Homo sapiens (Human), UniProt P22607). In words: FGFR3 in vitro kinase inhibitory activity assay (TRF, biotinylated Flt3 substrate). The format is biochemical. The conditions noted are these: % inhibition at 0.001 μM; read-out: FGFR3 IC50 or % inhibition. As for the experimental part: Enzymes (from Upstate) were prepared at 2× final concentration in 1× kinase assay buffer (as described below). Enzymes were then incubated with test compounds, biotinylated Flt3 substrate (biotin—DNEYFYV) (Cell Signalling Technology Inc.) and ATP. The reaction was allowed to proceed for 3 hours (FGFR3) or 2.5 hrs (PDGFR-beta) at room temperature on a plate shaker at 900 rpm before being stopped with 20 μl of 35 mM EDTA, pH 8 (FGFR3) or 55 mM EDTA, pH 8 (PDGFR-beta). […] The plate was then read on a Packard Fusion plate reader in TRF mode.
Sequence of FGFR3 (P22607 23-806): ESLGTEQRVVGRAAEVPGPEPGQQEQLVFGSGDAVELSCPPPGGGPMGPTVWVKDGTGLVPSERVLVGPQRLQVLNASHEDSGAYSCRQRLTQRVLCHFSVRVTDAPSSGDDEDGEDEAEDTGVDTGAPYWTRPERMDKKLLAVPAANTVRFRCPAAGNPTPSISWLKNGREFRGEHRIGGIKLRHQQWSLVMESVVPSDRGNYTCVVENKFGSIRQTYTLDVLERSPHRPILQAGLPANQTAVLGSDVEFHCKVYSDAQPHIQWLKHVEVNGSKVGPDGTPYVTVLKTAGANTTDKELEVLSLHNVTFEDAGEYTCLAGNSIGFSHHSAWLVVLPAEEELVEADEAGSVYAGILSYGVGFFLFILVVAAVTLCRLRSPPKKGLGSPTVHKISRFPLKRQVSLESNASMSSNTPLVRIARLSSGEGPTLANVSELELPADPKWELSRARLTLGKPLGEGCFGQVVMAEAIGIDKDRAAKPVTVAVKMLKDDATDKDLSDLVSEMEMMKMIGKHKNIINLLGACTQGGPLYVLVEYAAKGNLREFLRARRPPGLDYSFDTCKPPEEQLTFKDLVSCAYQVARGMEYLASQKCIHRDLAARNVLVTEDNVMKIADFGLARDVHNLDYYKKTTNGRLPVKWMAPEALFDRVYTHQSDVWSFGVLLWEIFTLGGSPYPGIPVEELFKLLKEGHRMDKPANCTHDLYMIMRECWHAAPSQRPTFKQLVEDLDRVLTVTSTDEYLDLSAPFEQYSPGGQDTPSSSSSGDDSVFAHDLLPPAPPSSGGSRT
Kinase Assay buffers were:
A: 50 mM HEPES pH 7.5, 6 mM MnCl2, 1 mM DTT, 0.1% TritonX-100
`Cc1c(-c2ccn3c(-c4cccc(NC(=O)NCC(F)(F)F)c4)cnc3c2)ncn1C` [Example 374, 1-{3-[7-(1,5-Dimethyl-1H-imidazol-4-yl)-imidazo[1,2-a]pyridin-3-yl]-phenyl}-3-(2,2,2-trifluoro-ethyl)-urea]: the inhibition at 0.001 µM turned out to be 64%.

Still in this assay, the particulars now being: read-out: IC50 less than 1 μM or at least 50% inhibition of the FGFR3 activity at a concentration of 1 μM.
As for `Cc1nc(C)n(-c2ccn3c(-c4cccc(NC(=O)NCC(F)(F)F)c4)cnc3c2)n1` [Example 414, 1-{3-[7-(3,5-Dimethyl-[1,2,4]triazol-1-yl)-imidazo[1,2-a]pyridin-3-yl]-phenyl}-3-(2,2,2-trifluoro-ethyl)-urea], the IC50 is under 1 µM. Take `Fc1ccc(-c2ccn3c(-c4ccc5[nH]ccc5c4)cnc3c2)cc1` [Example 70, 7-(4-Fluoro-phenyl)-3-(1H-indol-5-yl)-imidazo[1,2-a]pyridine formate salt]: the IC50 was under 1 µM. On to `COc1cncc(-c2ccc3ncc(-c4cccc(NC(C)=O)c4)n3c2)c1` [Example 101, N-{3-[6-(5-Methoxy-pyridin-3-yl)-imidazo[1,2-a]pyridin-3-yl]-phenyl}-acetamide], for which the IC50 was under 1 µM.

`COc1ccc(-c2ccc3ncc(-c4cccc(NC(C)=O)c4)n3c2)cc1` [Example 100, N-{3-[6-(4-Methoxy-phenyl)-imidazo[1,2-a]pyridin-3-yl]-phenyl}-acetamide formate salt]: the IC50 is under 1 µM.

The same assay, now with this note: read-out: IC50 less than 10 μM or at least 50% inhibition of the FGFR3 activity at a concentration of 10 μM.
With `Cc1nc(C)n(-c2ccn3c(-c4cccc(NC(=O)NCC(F)(F)F)c4)cnc3c2)n1` [Example 414, 1-{3-[7-(3,5-Dimethyl-[1,2,4]triazol-1-yl)-imidazo[1,2-a]pyridin-3-yl]-phenyl}-3-(2,2,2-trifluoro-ethyl)-urea], the IC50 was under 10 µM.
